Experimental findings from patent US10669272B2, “Substituted naphthyridinone compounds useful as T cell activators” (BRISTOL-MYERS SQUIBB COMPANY, priority 2018, dated 2020) are described below.

Read-outs that look alike come from different tables or passages of the source.

The target in one experiment is T1, human DGKα (Homo sapiens, UniProt P23743).
T1 construct: TVMV protease cleavage site (C); Hexa-His (C); made in house; host or cells: Sf9 insect cells (baculovirus, Bac-to-Bac)
Nature of the experiment: DGKα LIPGLO assay (extruded liposome substrate), in vitro DGK inhibition. Type of experiment: biochemical. As to conditions: liposome (LIPGLO) assay; read-out: DGKa LIPGLO IC50.

A further experiment has as its target T2, human DGKζ (Homo sapiens, UniProt Q13574).
T2 construct: TVMV protease cleavage site (C); Hexa-His (C); made in house; host or cells: Sf9 insect cells (baculovirus, Bac-to-Bac)
Nature of the experiment: DGKζ LIPGLO assay (extruded liposome substrate), in vitro DGK inhibition. Type of experiment: biochemical. The conditions noted are these: liposome (LIPGLO) assay; read-out: DGKz LIPGLO IC50.

The next experiment concerns Human venous whole blood. The experiment in a line: Human whole blood IFN-γ assay.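 Also: blood from healthy donors exposed to compound for 1 h before stimulation with anti-CD3 and anti-CD28 at 1 µg/mL each, IFN-γ quantified in supernatant by AlphaLISA.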 Type of experiment: cell-based. As to conditions: human whole blood, normalized to 3 μM reference compound with anti-CD3 plus anti-CD28 as 100% activation, read-out: INFg Whole Blood Normalized Agonist EC50.

T1 sequence (P23743 with tags, fused parts or gaps): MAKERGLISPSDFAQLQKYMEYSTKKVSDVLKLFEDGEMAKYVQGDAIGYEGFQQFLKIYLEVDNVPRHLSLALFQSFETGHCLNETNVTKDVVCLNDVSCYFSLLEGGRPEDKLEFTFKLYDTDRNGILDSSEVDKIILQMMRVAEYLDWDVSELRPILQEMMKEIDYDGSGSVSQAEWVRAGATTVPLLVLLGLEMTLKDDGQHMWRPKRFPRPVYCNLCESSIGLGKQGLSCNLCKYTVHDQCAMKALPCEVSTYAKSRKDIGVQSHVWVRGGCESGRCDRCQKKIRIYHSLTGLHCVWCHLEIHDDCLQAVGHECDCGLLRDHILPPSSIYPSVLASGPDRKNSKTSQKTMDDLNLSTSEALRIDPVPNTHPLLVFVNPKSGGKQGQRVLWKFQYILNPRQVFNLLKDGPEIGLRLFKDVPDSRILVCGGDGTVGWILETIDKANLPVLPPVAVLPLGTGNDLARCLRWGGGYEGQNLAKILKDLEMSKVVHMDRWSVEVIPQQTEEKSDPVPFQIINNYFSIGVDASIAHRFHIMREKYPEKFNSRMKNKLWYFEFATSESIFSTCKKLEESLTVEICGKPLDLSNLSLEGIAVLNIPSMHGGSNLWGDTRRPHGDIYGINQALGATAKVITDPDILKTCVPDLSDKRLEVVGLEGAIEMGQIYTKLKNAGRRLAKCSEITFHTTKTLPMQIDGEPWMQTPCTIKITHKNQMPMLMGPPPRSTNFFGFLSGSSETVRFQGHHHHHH
T2 sequence (Q13574 with tags, fused parts or gaps isoform Q13574-4): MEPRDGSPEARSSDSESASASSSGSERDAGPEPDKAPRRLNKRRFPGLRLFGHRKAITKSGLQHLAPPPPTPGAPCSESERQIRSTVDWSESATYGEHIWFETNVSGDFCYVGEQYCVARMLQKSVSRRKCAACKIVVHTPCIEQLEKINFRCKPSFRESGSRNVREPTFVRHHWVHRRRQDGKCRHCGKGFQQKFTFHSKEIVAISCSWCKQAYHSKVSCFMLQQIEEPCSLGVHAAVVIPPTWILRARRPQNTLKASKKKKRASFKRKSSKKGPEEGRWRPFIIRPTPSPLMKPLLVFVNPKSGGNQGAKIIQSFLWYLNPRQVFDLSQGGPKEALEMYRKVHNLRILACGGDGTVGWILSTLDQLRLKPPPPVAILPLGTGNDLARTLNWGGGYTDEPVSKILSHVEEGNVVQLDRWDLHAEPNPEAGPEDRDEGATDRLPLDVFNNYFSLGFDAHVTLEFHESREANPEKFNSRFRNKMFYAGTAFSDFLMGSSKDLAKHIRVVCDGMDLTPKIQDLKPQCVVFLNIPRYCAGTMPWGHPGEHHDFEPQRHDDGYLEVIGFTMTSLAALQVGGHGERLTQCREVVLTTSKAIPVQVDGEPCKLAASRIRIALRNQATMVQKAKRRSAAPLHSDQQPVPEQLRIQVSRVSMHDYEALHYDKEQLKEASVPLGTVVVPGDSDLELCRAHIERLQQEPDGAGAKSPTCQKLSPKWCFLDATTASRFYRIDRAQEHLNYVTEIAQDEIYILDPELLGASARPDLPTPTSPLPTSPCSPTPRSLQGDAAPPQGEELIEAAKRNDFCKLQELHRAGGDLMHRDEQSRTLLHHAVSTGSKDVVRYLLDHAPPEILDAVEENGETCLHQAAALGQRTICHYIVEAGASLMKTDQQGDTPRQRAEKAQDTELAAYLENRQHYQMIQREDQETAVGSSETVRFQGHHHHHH
Protocol for Human venous whole blood: Human Whole Blood IFN-γ Assay
Human venous whole blood (22.5 μL per well), obtained from healthy donors, was pre-treated with compounds for one hour at 37° C. in a humidified 95% air/5% CO2 incubator. The blood was stimulated with 2.5 μL anti-human CD3 and anti-CD28 mAb at a final concentration of 1 μg/mL each for 24 hours at 37° C. IFN-γ in the supernatants was measured using AlphLISA kit (Cat # AL217).

For `Cc1ccc(C(c2ccc(C)cn2)N2C[C@H](C)N(c3cc(=O)n(C)c4ccc(C#N)nc34)C[C@H]2C)cc1` (single isomer, unassigned) [Example 454], the IC50 on human DGKα worked out at 230 nM; on human DGKζ, 540 nM. Also, the EC50 in the experiment with Human venous whole blood (Homo sapiens, 24 h) came to 0.47 µM.

For the compound `Cc1ccnc(C(c2ccc(F)cc2)N2C[C@H](C)N(c3cc(=O)n(C)c4ccc(C#N)nc34)C[C@H]2C)c1` (single isomer, unassigned) [Example 456], the IC50 at human DGKα turned out to be 230 nM; on human DGKζ it was 1000 nM. Besides, the EC50 in the experiment with Human venous whole blood worked out at 1.1 µM.

`Cc1ccc(C(c2ccc(C)cn2)N2C[C@H](C)N(c3cc(=O)n(C)c4ccc(C#N)nc34)C[C@H]2C)cc1` (single isomer, unassigned) [Example 457]: the IC50 stood at 140 nM on human DGKα and 1100 nM on human DGKζ. For the same compound, the EC50 with Human venous whole blood was found to be 0.59 µM.

For the compound `C[C@@H]1CN(c2cc(=O)n(C)c3ccc(C#N)nc23)[C@@H](C)CN1C(c1ccc(Cl)cc1)c1ccc(F)c2c1OC(C)(C)C2` (single isomer, unassigned) [Example 458], the results for the IC50 at human DGKα and at human DGKζ were 1100 nM and 110 nM, respectively. Further, the EC50 with Human venous whole blood (Homo sapiens, 24 h) was determined as 0.51 µM.

`Cc1ccc(C(c2cc(C)ccn2)N2C[C@H](C)N(c3cc(=O)n(C)c4ccc(C#N)nc34)C[C@H]2C)cc1` (single isomer, unassigned) [Example 461]: the IC50 on human DGKα worked out at 1400 nM; at human DGKζ it was 3600 nM. Also, the EC50 in the experiment on Human venous whole blood worked out at 2.1 µM.

Turning to `C[C@@H]1CN(c2cc(=O)n(C)c3ccc(C#N)nc23)[C@@H](C)CN1C(c1ccc(C#N)cc1)c1ccc(F)cn1` (single isomer, unassigned) [Example 463], the IC50 worked out at 330 nM at human DGKα and 4600 nM on human DGKζ. In addition, the half-maximal effective concentration (EC50) in the experiment with Human venous whole blood worked out at 3.7 µM.

`C[C@@H]1CN(c2cc(=O)n(C)c3ccc(C#N)nc23)[C@@H](C)CN1C(c1ccc(F)cn1)c1cccc2c1OC(C)(C)C2` (single isomer, unassigned) [Example 465]: the IC50 on human DGKα turned out to be 200 nM; on human DGKζ, 980 nM. For the same compound, the EC50 in the experiment with Human venous whole blood (Homo sapiens, 24 h) is 20 µM.

With `C[C@@H]1CN(c2cc(=O)n(C)c3ccc(C#N)nc23)[C@@H](C)CN1C(c1ccc(OC(F)(F)F)cc1)c1ccc(F)cn1` (single isomer, unassigned) [Example 466], the IC50 on human DGKα turned out to be 190 nM; at human DGKζ, 1800 nM. Besides, the EC50 with Human venous whole blood was 5.5 µM.

With `C[C@@H]1CN(c2cc(=O)n(C)c3ccc(C#N)nc23)[C@@H](C)CN1C(c1ccc(F)cn1)c1cccc2c1OC(C)(C)C2` (single isomer, unassigned) [Example 467], the IC50 at human DGKα turned out to be 980 nM; at human DGKζ, 450 nM. Besides, the EC50 in the experiment on Human venous whole blood is 20 µM.

Regarding `C[C@@H]1CN(c2cc(=O)n(C)c3ccc(C#N)nc23)[C@@H](C)CN1C(c1ccc(OC(F)(F)F)cc1)c1ccc(F)cn1` (single isomer, unassigned) [Example 468], the results for the IC50 at human DGKα and at human DGKζ were 140 nM and 1600 nM, respectively. Also, the EC50 with Human venous whole blood worked out at 1.3 µM.

For the compound `Cc1ccc(C(c2cccc3c2OCCCO3)N2C[C@H](C)N(c3cc(=O)n(C)c4ccc(C#N)nc34)C[C@H]2C)nc1` (single isomer, unassigned) [Example 469], the IC50 turned out to be 1700 nM on human DGKα and 510 nM on human DGKζ. In addition, the EC50 in the experiment with Human venous whole blood worked out at 3.2 µM.

As to `Cc1cccc(C(c2cccc(F)c2)N2C[C@H](C)N(c3cc(=O)n(C)c4ccc(C#N)nc34)C[C@H]2C)n1` (single isomer, unassigned) [Example 470], the IC50 on human DGKα came to 13000 nM; on human DGKζ it was 2000 nM. Also, the concentration giving a half-maximal response (EC50) in the experiment on Human venous whole blood (Homo sapiens, 24 h) was determined as 0.37 µM.

On to `C[C@@H]1CN(c2cc(=O)n(C)c3ccc(C#N)nc23)[C@@H](C)CN1C(c1ccc(F)cc1)c1cc(F)ccn1` (single isomer, unassigned) [Example 473], for which the half-inhibitory concentration (IC50) amounted to 1700 nM at human DGKα and 4000 nM on human DGKζ. In addition, the EC50 in the experiment on Human venous whole blood was determined as 0.88 µM.

`C[C@@H]1CN(c2cc(=O)n(C)c3ccc(C#N)nc23)[C@@H](C)CN1C(c1ccc(F)cc1)c1cc(F)ccn1` (single isomer, unassigned) [Example 474]: the results for the IC50 at human DGKα and on human DGKζ were 260 nM and 1200 nM, respectively. Also, the EC50 with Human venous whole blood is 0.26 µM.

Take `Cc1ccc(C(c2cccc(F)n2)N2C[C@H](C)N(c3cc(=O)n(C)c4ccc(C#N)nc34)C[C@H]2C)cc1` (single isomer, unassigned) [Example 478]: the half-inhibitory concentration (IC50) came out at 2100 nM at human DGKα and 2400 nM on human DGKζ. Also, in the experiment on Human venous whole blood (Homo sapiens, 24 h), the EC50 is 3.8 µM.

`Cc1ccc(C(c2cccc(F)n2)N2C[C@H](C)N(c3cc(=O)n(C)c4ccc(C#N)nc34)C[C@H]2C)cc1` (single isomer, unassigned) [Example 479]: the IC50 on human DGKα is 910 nM; on human DGKζ, 1900 nM. Further, the EC50 in the experiment on Human venous whole blood amounted to 2.1 µM.

For the compound `C[C@@H]1CN(c2cc(=O)n(C)c3ccc(C#N)nc23)[C@@H](C)CN1C(c1ccc(OC(F)(F)F)cc1F)C1CC1` (single isomer, unassigned) [Example 480], the results for the IC50 on human DGKα and on human DGKζ were 1600 nM and 1800 nM, respectively. Besides, the EC50 in the experiment with Human venous whole blood (Homo sapiens, 24 h) is 4.9 µM.

As for `CC[C@@H]1CN(c2cc(=O)n(C)c3ccc(C#N)nc23)[C@@H](C)CN1C(C)c1ccc(OC)cc1` (single isomer, unassigned) [Example 482], the IC50 on human DGKα was 130 nM; on human DGKζ, 170 nM. In the experiment with Human venous whole blood, the EC50 was 0.29 µM.

Regarding `CC[C@@H]1CN(c2cc(=O)n(C)c3ccc(C#N)nc23)[C@@H](C)CN1C(C)c1ccc(OC)cc1` (single isomer, unassigned) [Example 483], the IC50 turned out to be 3300 nM at human DGKα and 3900 nM on human DGKζ. The EC50 in the experiment on Human venous whole blood is 4.3 µM.

On to `C[C@@H]1CN(c2cc(=O)n(C)c3ccc(C#N)nc23)[C@@H](C)CN1C(CO)c1ccc(F)cc1` (single isomer, unassigned) [Example 557], for which the IC50 at human DGKα is 500 nM; at human DGKζ, 5300 nM. Also, the EC50 in the experiment with Human venous whole blood was determined as 1.6 µM.

Consider `C[C@@H]1CN(c2cc(=O)n(C)c3ccc(C#N)nc23)[C@@H](C)CN1C(CO)c1ccc(F)cc1` (single isomer, unassigned) [Example 558], for which the half-maximal inhibitory concentration (IC50) at human DGKα is 10000 nM; at human DGKζ, 100000 nM. Moreover, in the experiment on Human venous whole blood, the EC50 was found to be 15 µM.

For the compound `COCC(c1ccc(F)cc1)N1C[C@H](C)N(c2cc(=O)n(C)c3ccc(C#N)nc23)C[C@H]1C` (single isomer, unassigned) [Example 559], the figures for the IC50 on human DGKα and at human DGKζ were 65 nM and 2700 nM, respectively. In the experiment on Human venous whole blood (Homo sapiens, 24 h), the EC50 is 0.27 µM.

Regarding `[2H]C(CC)(c1ccc(F)cc1)N1C[C@H](C)N(c2cc(=O)n(C)c3ccc(C#N)nc23)C[C@H]1C` (single isomer, unassigned) [Example 574], the IC50 worked out at 1800 nM at human DGKα and 28000 nM at human DGKζ. In addition, in the experiment on Human venous whole blood, the EC50 was 7.3 µM.

`[2H]C(CC)(c1ccc(F)cc1)N1C[C@H](C)N(c2cc(=O)n(C)c3ccc(C#N)nc23)C[C@H]1C` (single isomer, unassigned) [Example 575]: the IC50 at human DGKα worked out at 180 nM; on human DGKζ, 1600 nM. Further, the EC50 in the experiment with Human venous whole blood worked out at 0.36 µM.

Consider `C[C@@H]1CN(c2cc(=O)n(C)c3ccc(C#N)nc23)[C@@H](C)CN1C(c1ccc(F)cc1)C(F)(F)F` (single isomer, unassigned) [Example 582], for which the results for the IC50 on human DGKα and on human DGKζ were 440 nM and 6000 nM, respectively. Further, in the experiment on Human venous whole blood, the EC50 is 1.7 µM.

On to `C[C@@H]1CN(c2cc(=O)n(C)c3ccc(C#N)nc23)[C@@H](C)CN1C(c1ccc(F)cc1)C(F)(F)F` (single isomer, unassigned) [Example 583], for which the IC50 on human DGKα is 100 nM; on human DGKζ it was 950 nM. For the same compound, the EC50 in the experiment with Human venous whole blood is 0.46 µM.

Turning to `C[C@@H]1CN(c2cc(=O)n(C)c3ccc(C#N)nc23)[C@@H](C)CN1Cc1ccc(OC(F)(F)F)cc1F` (single isomer, unassigned) [Example 591], the IC50 on human DGKα is 3100 nM; at human DGKζ it was 3900 nM. The EC50 with Human venous whole blood (Homo sapiens, 24 h) was 19 µM.

As to `C[C@@H]1CN(c2cc(=O)n(C)c3ccc(C#N)nc23)[C@@H](C)CN1C(c1c(F)cc(O)cc1F)C(F)(F)F` (single isomer, unassigned) [Example 592], the IC50 at human DGKα is 5500 nM; at human DGKζ, 19000 nM. In the experiment on Human venous whole blood (Homo sapiens, 24 h), the EC50 was 3.6 µM.

`C[C@@H]1CN(c2cc(=O)n(C)c3ccc(C#N)nc23)[C@@H](C)CN1C(c1c(F)cc(O)cc1F)C(F)(F)F` (single isomer, unassigned) [Example 627]: the IC50 at human DGKα is 5400 nM; at human DGKζ, 5900 nM. In the experiment with Human venous whole blood (Homo sapiens, 24 h), the EC50 was found to be 5.1 µM.

Consider `C[C@@H]1CN(c2cc(=O)n(C)c3ccc(C#N)nc23)[C@@H](C)CN1C(c1c(F)cc(O)cc1F)C(F)(F)F` (single isomer, unassigned) [Example 628], for which the results for the IC50 at human DGKα and on human DGKζ were 5900 nM and 7400 nM, respectively. In addition, the EC50 with Human venous whole blood came to 4.8 µM.

Consider `CC(c1cccc(C(F)(F)F)n1)N1C[C@H](C)N(c2cc(=O)n(C)c3ccc(C#N)nc23)C[C@H]1C` (single isomer, unassigned) [Example 636], for which the IC50 on human DGKα came to 12000 nM; on human DGKζ, 8000 nM. The EC50 in the experiment on Human venous whole blood amounted to 3.9 µM.

`CC(c1cccc(C(F)(F)F)n1)N1C[C@H](C)N(c2cc(=O)n(C)c3ccc(C#N)nc23)C[C@H]1C` (single isomer, unassigned) [Example 637]: the IC50 came out at 170 nM at human DGKα and 840 nM at human DGKζ. In addition, the EC50 with Human venous whole blood is 10 µM.

In the case of `CC(c1cccc2ncccc12)N1C[C@H](C)N(c2cc(=O)n(C)c3ccc(C#N)nc23)C[C@H]1C` (single isomer, unassigned) [Example 638], the figures for the IC50 on human DGKα and at human DGKζ were 110000 nM and 1800 nM, respectively. Further, the EC50 in the experiment with Human venous whole blood (Homo sapiens, 24 h) is 20 µM.

Usually IC50 stands for the concentration needed to halve the response being measured. For orientation: EC50 means the midpoint of the concentration-response curve.
